We go through twelve compounds from ChEMBL document CHEMBL1817621, “SAR studies of acidic dual γ-secretase/PPARγ modulators” (Bioorg Med Chem, 2011).

SMILES strings stand for the structures. The source made the active and inactive calls. No cut-off for these calls is given here.

For data set [1], the target named is T1, Peroxisome proliferator-activated receptor gamma (Homo sapiens, UniProt P37231).
T1 sequence (P37231 whole entry): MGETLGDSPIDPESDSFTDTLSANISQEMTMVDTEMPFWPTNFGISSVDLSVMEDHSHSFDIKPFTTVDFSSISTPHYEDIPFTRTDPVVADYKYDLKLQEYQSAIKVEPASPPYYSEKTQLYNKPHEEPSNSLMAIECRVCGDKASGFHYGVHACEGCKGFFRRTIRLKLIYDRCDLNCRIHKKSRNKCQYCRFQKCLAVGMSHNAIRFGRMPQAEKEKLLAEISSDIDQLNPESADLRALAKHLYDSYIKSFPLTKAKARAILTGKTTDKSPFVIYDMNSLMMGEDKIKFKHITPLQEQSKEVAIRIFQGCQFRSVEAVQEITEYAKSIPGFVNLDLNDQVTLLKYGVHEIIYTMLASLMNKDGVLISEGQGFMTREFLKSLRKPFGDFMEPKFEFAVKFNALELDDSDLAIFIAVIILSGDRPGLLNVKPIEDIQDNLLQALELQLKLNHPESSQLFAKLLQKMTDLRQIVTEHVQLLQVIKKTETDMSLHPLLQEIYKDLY
As to the kind of experiment: Modulation of human PPARgamma-LBD expressed in african green monkey COS7 cells co-transfected with Gal4 assessed as activation of transactivation activity by luciferase assay. The class given is cell-based, COS-7.

Data set [2] can be described thus: Modulation of gamma-secretase expressed in CHO cells co-expressing human APP and wild type human presenilin-1 assessed as increase of amyloid beta38 production by ELISA. Format: cell-based. Background: An ELISA detects its analyte on a solid surface through an enzyme-linked reagent.
Data set [3] concerns the target T2, Peroxisome proliferator-activated receptor delta (Homo sapiens) (UniProt Q03181).
T2 sequence (whole entry): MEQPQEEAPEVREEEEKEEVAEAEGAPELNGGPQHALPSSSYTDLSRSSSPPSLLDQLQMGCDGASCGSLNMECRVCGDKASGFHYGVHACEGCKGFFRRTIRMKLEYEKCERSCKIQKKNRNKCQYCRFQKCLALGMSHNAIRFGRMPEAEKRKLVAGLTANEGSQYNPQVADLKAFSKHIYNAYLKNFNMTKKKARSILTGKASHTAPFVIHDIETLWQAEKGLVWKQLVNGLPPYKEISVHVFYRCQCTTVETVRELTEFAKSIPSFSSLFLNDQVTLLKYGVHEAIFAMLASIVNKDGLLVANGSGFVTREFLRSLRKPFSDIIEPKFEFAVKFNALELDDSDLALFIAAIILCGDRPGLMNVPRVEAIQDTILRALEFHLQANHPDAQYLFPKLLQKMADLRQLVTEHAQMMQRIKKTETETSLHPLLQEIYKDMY
As to the kind of experiment: Modulation of human PPARdelta-LBD expressed in african green monkey COS7 cells co-transfected with Gal4 assessed as activation of transactivation activity at 10 uM by luciferase assay. Format: cell-based. To be noted: COS-7.

Data set [4] deals with T3, Prostaglandin G/H synthase 2 (Homo sapiens) (UniProt P35354).
T3 sequence (whole entry): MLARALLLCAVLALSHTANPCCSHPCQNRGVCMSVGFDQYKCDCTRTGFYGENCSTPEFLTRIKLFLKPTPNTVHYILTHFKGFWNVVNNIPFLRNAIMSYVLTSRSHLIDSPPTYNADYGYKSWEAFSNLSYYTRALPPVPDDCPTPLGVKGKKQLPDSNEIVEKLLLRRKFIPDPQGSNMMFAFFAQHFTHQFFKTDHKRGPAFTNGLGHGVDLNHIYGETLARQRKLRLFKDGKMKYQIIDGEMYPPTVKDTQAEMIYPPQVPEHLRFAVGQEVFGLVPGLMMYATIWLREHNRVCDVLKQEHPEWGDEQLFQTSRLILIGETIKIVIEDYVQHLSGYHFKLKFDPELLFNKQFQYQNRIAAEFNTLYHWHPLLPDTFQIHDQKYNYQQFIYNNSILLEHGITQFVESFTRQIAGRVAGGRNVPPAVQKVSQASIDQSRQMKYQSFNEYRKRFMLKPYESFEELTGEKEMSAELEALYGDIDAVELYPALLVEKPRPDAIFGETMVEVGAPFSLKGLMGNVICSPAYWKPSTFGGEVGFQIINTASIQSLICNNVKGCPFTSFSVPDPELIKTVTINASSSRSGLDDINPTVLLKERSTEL
As to the kind of experiment: Inhibition of human recombinant COX-2 assessed as residual activity by measuring formation of 12-HHT from arachidonic acid at 10 uM by HPLC analysis.

Data set [5] in a line: Modulation of gamma-secretase expressed in CHO cells co-expressing human APP and wild type human presenilin-1 assessed as inhibition of amyloid beta42 production by ELISA. The class given is cell-based.
In data set [6] the target is T4, Prostaglandin G/H synthase 1 (Ovis aries) (UniProt P05979).
T4 sequence (whole entry): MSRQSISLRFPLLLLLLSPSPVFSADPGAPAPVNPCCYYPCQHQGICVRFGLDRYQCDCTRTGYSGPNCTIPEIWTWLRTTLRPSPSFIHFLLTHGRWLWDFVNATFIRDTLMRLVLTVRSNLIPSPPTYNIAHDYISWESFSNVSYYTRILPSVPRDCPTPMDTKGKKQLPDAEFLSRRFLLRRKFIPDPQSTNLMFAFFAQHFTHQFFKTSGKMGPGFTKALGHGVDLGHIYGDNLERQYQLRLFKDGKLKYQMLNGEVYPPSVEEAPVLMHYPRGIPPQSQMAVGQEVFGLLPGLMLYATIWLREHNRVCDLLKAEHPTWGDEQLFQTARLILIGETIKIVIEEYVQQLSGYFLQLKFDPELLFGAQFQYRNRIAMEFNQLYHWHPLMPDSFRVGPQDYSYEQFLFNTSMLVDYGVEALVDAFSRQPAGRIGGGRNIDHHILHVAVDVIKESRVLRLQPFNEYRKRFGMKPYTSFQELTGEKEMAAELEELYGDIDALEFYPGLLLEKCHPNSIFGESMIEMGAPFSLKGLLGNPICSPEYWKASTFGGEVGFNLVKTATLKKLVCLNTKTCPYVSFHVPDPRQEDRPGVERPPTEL
As to the kind of experiment: Inhibition of ovine COX-1 assessed as residual activity by measuring formation of 12-HHT from arachidonic acid at 10 uM by HPLC analysis.

The target of data set [7] is T5, Peroxisome proliferator-activated receptor alpha (Homo sapiens) (UniProt Q07869).
T5 sequence (whole entry): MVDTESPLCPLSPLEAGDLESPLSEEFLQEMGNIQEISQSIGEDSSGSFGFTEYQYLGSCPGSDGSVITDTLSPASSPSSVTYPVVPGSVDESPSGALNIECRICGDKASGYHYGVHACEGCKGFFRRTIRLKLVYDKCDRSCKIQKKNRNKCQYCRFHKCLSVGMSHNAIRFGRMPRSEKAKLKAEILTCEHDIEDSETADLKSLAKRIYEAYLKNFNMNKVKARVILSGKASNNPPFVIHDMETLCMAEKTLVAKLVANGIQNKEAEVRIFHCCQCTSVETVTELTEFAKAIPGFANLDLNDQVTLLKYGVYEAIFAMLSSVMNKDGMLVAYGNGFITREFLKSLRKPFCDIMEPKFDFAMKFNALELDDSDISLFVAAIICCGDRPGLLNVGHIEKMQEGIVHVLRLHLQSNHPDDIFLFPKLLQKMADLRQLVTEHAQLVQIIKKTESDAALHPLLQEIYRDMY
Kind of data set: Modulation of human PPARalpha-LBD expressed in african green monkey COS7 cells co-transfected with Gal4 assessed as activation of transactivation activity at 10 uM by luciferase assay. The class given is cell-based. The settings on record: COS-7.

Data set [8] addresses T6, Peroxisome proliferator-activated receptor gamma (Homo sapiens) (UniProt P37231).
T6 sequence (whole entry): T1 sequence (P37231 whole entry)
As to the kind of experiment: Modulation of human PPARgamma-LBD expressed in african green monkey COS7 cells co-transfected with Gal4 assessed as activation of transactivation activity by luciferase assay relative to pioglitazone. The class given is cell-based. The settings on record: COS-7.

The next data set has as its system CHO. Kind of data set: Cytotoxicity against CHO cells expressing human APP and wild type human presenilin-1 assessed as reduction of cell viability up to 40 uM after 24 hrs by Alamar blue assay. Format: cell-based, Cricetulus griseus. To be noted: chinese hamster.

By EC50 is commonly meant the concentration that produces a half-maximal response. Usually IC50 stands for the point on the concentration scale where inhibition reaches its midpoint. Regarding `CCCCC(Cc1ccc(OCCC2CCCCC2)c(OCCC2CCCCC2)c1)C(=O)O` (stereo unspecified), the values for the EC50 in data set [1] and in [2] were 1.1 µM and over 40 µM, respectively. The outcome in data set [3] and in data set [7] was inactive. Further, the Activity in [4] was 79.1%; in data set [6] it was 73.8%; in the data set with CHO, “Non-toxic”. Besides, the half-maximal inhibitory concentration (IC50) in data set [5] was over 40 µM. In data set [8], the Emax worked out at 69%.
For `CCCCC(Cc1ccc(OCCc2ccccc2)c(OCCC2CCCCC2)c1)C(=O)O` (stereo unspecified), the EC50 in data set [1] is 1.5 µM; in data set [2], over 40 µM. The result in data set [3] and in data set [7] was inactive. Besides, the results for the Activity (in data set [4]; in [6]; with CHO) were 96.6%, 82% and “Non-toxic”, respectively. Moreover, the IC50 in data set [5] was over 40 µM. Further, the Emax in data set [8] is 128%.
Take `CCCCC(Cc1cccc(OCCc2ccccc2)c1OCCc1ccccc1)C(=O)O` (stereo unspecified): the figures for the EC50 in data set [1] and in data set [2] were 3.7 µM and over 40 µM, respectively. Further, the outcome in data set [3] and in data set [7] was inactive. The Activity was 89.6% in [4], 66.1% in [6] and “Non-toxic” in the data set on CHO. In addition, in data set [5], the concentration for half-maximal inhibition (IC50) is over 40 µM. Further, in data set [8], the Emax amounted to 79%.
Turning to `CCCC/C(=C\c1cc(OCCc2ccccc2)ccc1OCCc1ccccc1)C(=O)O`, the 50% effective concentration (EC50) in [1] is 1.8 µM; in [2], 6.7 µM. The outcome in data set [3] and in data set [7] was inactive. Also, the Activity in data set [4] was 94.4%; in data set [6], 68%; with CHO it was “Non-toxic”. In addition, the IC50 in [5] was determined as 15.4 µM. For the same compound, the Emax in data set [8] amounted to 47%.
Consider `CCCCC(Sc1nc(OCCC2CCCCC2)cc(OCCC2CCCCC2)n1)C(=O)O` (stereo unspecified), for which, in data set [5], the half-maximal inhibitory concentration (IC50) was 6 µM. Besides, in the data set on CHO, the Activity result is “Non-toxic”.
In the case of `CCCCC(Cc1ccc(OCCc2ccccc2)c(OCCc2ccccc2)c1)C(=O)O` (stereo unspecified), the values for the half-maximal effective concentration (EC50) in data set [1] and in [2] were 2.2 µM and over 40 µM, respectively. Further, the result in data set [3] and in data set [7] was inactive. Also, the Activity is 86.4% in data set [4], 95.8% in data set [6] and “Non-toxic” with CHO. Besides, the IC50 in data set [5] was over 40 µM. In addition, the Emax in [8] is 100%.
In the case of `CCCCC(Sc1cc(OCCc2ccccc2)cc(OCCc2ccccc2)c1)C(=O)O` (stereo unspecified), the values for the EC50 in [1] and in [2] were 3.4 µM and 22.2 µM, respectively. Also, the result in data set [3] and in data set [7] was inactive. For the same compound, the values for the Activity (in data set [4]; in data set [6]; with CHO) were 110%, 71.3% and “Non-toxic”, respectively. The 50% inhibitory concentration (IC50) in [5] was 32.7 µM. In addition, the Emax in data set [8] stood at 73%.
Regarding `CCCC/C(=C\c1cc(OCCc2ccccc2)cc(OCCc2ccccc2)c1)C(=O)O`, the EC50 in [1] worked out at 7.8 µM; in [2], 27.3 µM. The outcome in data set [3] and in [7] was inactive. Besides, the Activity in data set [4] was 81.4%; in data set [6], 81.4%; in the data set on CHO, “Non-toxic”. In data set [5], the half-maximal inhibitory concentration (IC50) is 37.9 µM. In data set [8], the Emax was 95%.
Consider `CCCCC(Oc1cc(OCCc2ccccc2)cc(OCCc2ccccc2)c1)C(=O)O` (stereo unspecified), for which the concentration giving a half-maximal response (EC50) in [1] was 4.8 µM; in data set [2] it was 26.4 µM. Also, the outcome in data set [3] and in [7] was inactive. Further, the Activity in [4] was 92.5%; in data set [6], 71.6%; in the data set with CHO it was “Non-toxic”. Also, the concentration for half-maximal inhibition (IC50) in data set [5] was determined as 33.7 µM. In addition, the Emax in [8] turned out to be 46%.
On to `CCCCC(Cc1cc(OCCc2ccccc2)cc(OCCc2ccccc2)c1)C(=O)O` (stereo unspecified), for which the concentration for a half-maximal effect (EC50) in data set [1] is 4.7 µM; in [2], 28.1 µM. For the same compound, the outcome in data set [3] and in data set [7] was inactive. Besides, the Activity in [4] was 78.4%; in data set [6], 78.7%; in the data set on CHO, “Non-toxic”. Besides, the 50% inhibitory concentration (IC50) in data set [5] worked out at 38.4 µM. In addition, the Emax in data set [8] stood at 71%.
With `CCCCC(Cc1cc(OCCc2ccccc2)ccc1OCCc1ccccc1)C(=O)O` (stereo unspecified), the results for the concentration for a half-maximal effect (EC50) in [1] and in [2] were 10.8 µM and 14.5 µM, respectively. In addition, the outcome in data set [3] and in [7] was inactive. Moreover, the Activity in [4] was 66.5%; in [6] it was 63.8%; with CHO, “Non-toxic”. Also, the half-maximal inhibitory concentration (IC50) in data set [5] stood at 19.1 µM. Besides, the Emax in [8] was 97%.
Take `CCCCC(Cc1ccc(OCCC2CCCCC2)c(OCCc2ccccc2)c1)C(=O)O` (stereo unspecified): the EC50 in [1] was 2.5 µM; in data set [2] it was over 40 µM. Also, the outcome in data set [3] and in [7] was inactive. The Activity in data set [4] was 91.5%; in data set [6] it was 69.1%; with CHO it was “Non-toxic”. Moreover, the half-inhibitory concentration (IC50) in data set [5] was over 40 µM. For the same compound, the Emax in data set [8] was 61%.
